Results taken from the NIST ThermoML archive (doi:10.1016/j.fluid.2013.11.028).

Columns and labels:
[1] = Liquid; for mass density: 101 kPa, Vibrating tube method; for viscosity: 101.33 kPa, Falling or rolling sphere viscometry
[2] = wn = mass fraction of the nth substance listed; conditions: 101 kPa, Liquid; for viscosity: Falling or rolling sphere viscometry; for binary diffusion coefficient: Taylor dispersion method; for mass density: Vibrating tube method

CN(C)CCCN(C)C [N,N,N',N'-tetramethyl-1,3-propanediamine]
[1]
Conditions	mass density [kg/m3]
303.15 K	774.8
308.15 K	770.9
313.15 K	767.4
318.15 K	765
323.15 K	761.4

CNCCCN [N-methyl-1,3-diaminopropane] + O
[2]
Conditions	binary diffusion coefficient [m2/s]	mass density [kg/m3]	viscosity [mPa·s]
303.15 K, w1 = 0	8.45e-10	–	–
303.15 K, w1 = 0.1	7.35e-10	988.5	1.231
303.15 K, w1 = 0.2	6.87e-10	983.9	2.005
303.15 K, w1 = 0.3	6.4e-10	980.7	3.41
303.15 K, w1 = 0.4	6.08e-10	975.9	5.515
303.15 K, w1 = 1	–	849.1	–
308.15 K, w1 = 0	9.56e-10	–	–
308.15 K, w1 = 0.1	8.63e-10	986.7	1.09
308.15 K, w1 = 0.2	7.69e-10	981.6	1.731
308.15 K, w1 = 0.3	7.26e-10	977.7	2.823
308.15 K, w1 = 0.4	6.92e-10	972.2	4.451
308.15 K, w1 = 1	–	844.7	–
313.15 K, w1 = 0	1.05e-09	–	–
313.15 K, w1 = 0.1	9.36e-10	984.7	0.976
313.15 K, w1 = 0.2	8.72e-10	979.1	1.512
313.15 K, w1 = 0.3	8.25e-10	974.5	2.391
313.15 K, w1 = 0.4	7.77e-10	968.4	3.66
313.15 K, w1 = 1	–	840.3	–
318.15 K, w1 = 0	1.18e-09	–	–
318.15 K, w1 = 0.1	1.05e-09	982.6	0.887
318.15 K, w1 = 0.2	9.72e-10	976.4	1.333
318.15 K, w1 = 0.3	9.22e-10	971.3	2.059
318.15 K, w1 = 0.4	8.73e-10	964.6	2.979
318.15 K, w1 = 1	–	835.9	–
323.15 K, w1 = 0	1.31e-09	–	–
323.15 K, w1 = 0.1	1.18e-09	980.2	0.808
323.15 K, w1 = 0.2	1.09e-09	973.7	1.184
323.15 K, w1 = 0.3	1.03e-09	967.9	1.769
323.15 K, w1 = 0.4	9.77e-10	960.7	2.525
323.15 K, w1 = 1	–	831.5	–

O [water]
[1]
Conditions	viscosity [mPa·s]
303.15 K	0.789
308.15 K	0.714
313.15 K	0.651
318.15 K	0.598
323.15 K	0.541

CN(C)CCCN(C)C [N,N,N',N'-tetramethyl-1,3-propanediamine] + O
[2]
Conditions	binary diffusion coefficient [m2/s]	mass density [kg/m3]	viscosity [mPa·s]
303.15 K, w1 = 0	7.01e-10	–	–
303.15 K, w1 = 0.1	4.86e-10	983.3	1.345
303.15 K, w1 = 0.2	3.74e-10	972.5	2.335
303.15 K, w1 = 0.3	3.05e-10	960.1	3.923
303.15 K, w1 = 0.4	2.56e-10	944.6	6.081
303.15 K, w1 = 1	–	774.8	–
308.15 K, w1 = 0	7.99e-10	–	–
308.15 K, w1 = 0.1	5.53e-10	981.4	1.183
308.15 K, w1 = 0.2	4.41e-10	969.8	1.985
308.15 K, w1 = 0.3	3.57e-10	956.7	3.192
308.15 K, w1 = 0.4	2.89e-10	940.6	4.853
308.15 K, w1 = 1	–	770.9	–
313.15 K, w1 = 0	9.04e-10	–	–
313.15 K, w1 = 0.1	6.16e-10	979.3	1.051
313.15 K, w1 = 0.2	4.83e-10	967	1.709
313.15 K, w1 = 0.3	4.09e-10	953.1	2.669
313.15 K, w1 = 0.4	3.45e-10	936.6	3.838
313.15 K, w1 = 1	–	767.4	–
318.15 K, w1 = 0	1.01e-09	–	–
318.15 K, w1 = 0.1	6.82e-10	977	0.941
318.15 K, w1 = 0.2	5.41e-10	964	1.488
318.15 K, w1 = 0.3	4.58e-10	949.5	2.264
318.15 K, w1 = 0.4	3.82e-10	932.5	3.182
318.15 K, w1 = 1	–	765	–
323.15 K, w1 = 0	1.08e-09	–	–
323.15 K, w1 = 0.1	7.48e-10	974.6	0.846
323.15 K, w1 = 0.2	6.07e-10	961	1.311
323.15 K, w1 = 0.3	5.14e-10	945.8	1.945
323.15 K, w1 = 0.4	4.32e-10	928.4	2.681
323.15 K, w1 = 1	–	761.4	–
